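The compound was tested at five concentrations on cells cultured in 96-well plates, with a 48-hour exposure period. Abbreviation: GI50, concentration required for 50% inhibition of growth.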 Active and inactive are the calls of the source. Cut-off read from the data, not from the text of the source: active = GI50 up to about 1.1 µM and inactive = higher.
Experiments:
Test in all cases: NCI-60 cell line screen, 48 h
[1] = tested on: ACHN
[2] = tested on: NCI/ADR-RES
[3] = tested on: Malme-3M
[4] = tested on: RXF 393
[5] = tested on: COLO 205
[6] = tested on: A498
[7] = tested on: CAKI-1
[8] = tested on: SN12C
[9] = tested on: MCF7
[10] = tested on: HOP-92
[11] = tested on: A549
[12] = tested on: HCT-15
[13] = tested on: 786-0
[14] = tested on: Hs-578T
[15] = tested on: SK-MEL-2
[16] = tested on: DU-145
[17] = tested on: OVCAR-8
[18] = tested on: MOLT-4
[19] = tested on: KM12
[20] = tested on: SK-MEL-28

Row | SMILES | GI50 [1] | GI50 [2] | GI50 [3] | GI50 [4] | GI50 [5] | GI50 [6] | GI50 [7] | GI50 [8] | GI50 [9] | GI50 [10] | GI50 [11] | GI50 [12] [µM] | GI50 [13] | GI50 [14] | GI50 [15] | GI50 [16] | GI50 [17] | GI50 [18] | GI50 [19] | GI50 [20]
1 | O=C1CC(O)c2c(Br)sc(Br)c21 (stereo not given) | 16.2 µM (inactive) | 30.3 µM (inactive) | 17.1 µM (inactive) | 2.5 µM (inactive) | 13.2 µM (inactive) | 19.9 µM (inactive) | 2.07 µM (inactive) | 17.5 µM (inactive) | 3.46 µM (inactive) | 17.9 µM (inactive) | 19.3 µM (inactive) | 11.3 | 4.1 µM (inactive) | 25.6 µM (inactive) | 14 µM (inactive) | 10.4 µM (inactive) | 5.01 µM (inactive) | 1.91 µM (inactive) | 7.48 µM (inactive) | 15.7 µM (inactive)
2 | COc1ccc(C2c3cc4c(cc3OC3(OC)COC(=O)C23)OCO4)c(OC)c1 (stereo not given) | 34.8 µM (inactive) | 3.23 µM (inactive) | 8.63 µM (inactive) | 6.59 µM (inactive) | 5.62 µM (inactive) | 39.5 µM (inactive) | 7.43 µM (inactive) | 15.6 µM (inactive) | 4.85 µM (inactive) | 26.5 µM (inactive) | 10.1 µM (inactive) | 5.19 | 11.3 µM (inactive) | 3.78 µM (inactive) | 12.6 µM (inactive) | 31.9 µM (inactive) | 9.84 µM (inactive) | 4.91 µM (inactive) | 3.43 µM (inactive) | 18.4 µM (inactive)
3 | CC/C(N)=N\NC(=O)OC(C)(C)C | > 100 µM (inactive) | > 100 µM (inactive) | > 100 µM (inactive) | > 100 µM (inactive) | > 100 µM (inactive) | > 100 µM (inactive) | > 100 µM (inactive) | > 100 µM (inactive) | > 100 µM (inactive) | > 100 µM (inactive) | > 100 µM (inactive) | > 100 | > 100 µM (inactive) | > 100 µM (inactive) | > 100 µM (inactive) | > 100 µM (inactive) | > 100 µM (inactive) | > 100 µM (inactive) | > 100 µM (inactive) | > 100 µM (inactive)
4 | CCN(CC)CCNc1ccc2ncn3c4ccc(OC)cc4c(=O)c1c23 | 1.05 µM (active) | 0.885 µM (active) | 9.12 µM (inactive) | 2.23 µM (inactive) | 1.49 µM (inactive) | 6.7 µM (inactive) | 5.65 µM (inactive) | 2.14 µM (inactive) | 57 µM (inactive) | 4.75 µM (inactive) | 2.91 µM (inactive) | 1.57 | 2.22 µM (inactive) | 11.1 µM (inactive) | 9.25 µM (inactive) | 8.28 µM (inactive) | 0.836 µM (active) | 0.31 µM (active) | 1.78 µM (inactive) | 14.3 µM (inactive)
5 | COc1cc(C2CC(C)(Nc3ccccc3)Oc3cc4c(cc32)OCO4)cc(OC)c1OC (stereo not given) | 0.499 µM (active) | 0.277 µM (active) | 3.29 µM (inactive) | 0.222 µM (active) | 0.839 µM (active) | 2.97 µM (inactive) | 0.478 µM (active) | 0.247 µM (active) | 0.135 µM (active) | 15.8 µM (inactive) | 2.14 µM (inactive) | 0.161 | 0.298 µM (active) | 0.105 µM (active) | 0.303 µM (active) | 0.352 µM (active) | 0.483 µM (active) | 0.535 µM (active) | 0.19 µM (active) | 0.254 µM (active)
6 | CC(=O)CC[N+](C)(C)C | 17 µM (inactive) | 38.9 µM (inactive) | 16.1 µM (inactive) | 12.9 µM (inactive) | 9.04 µM (inactive) | 69.2 µM (inactive) | 1.9 µM (inactive) | 27.7 µM (inactive) | 30.3 µM (inactive) | 10.7 µM (inactive) | 83.4 µM (inactive) | 22.7 | 23.6 µM (inactive) | 12.6 µM (inactive) | 36.4 µM (inactive) | 88.5 µM (inactive) | 33.5 µM (inactive) | 6.15 µM (inactive) | 77.3 µM (inactive) | 28.5 µM (inactive)
7 | C1CCN2CC34CC(CC5CCCN(C6CCCC3N6)C54)C2C1 (stereo not given) | > 100 µM (inactive) | > 100 µM (inactive) | > 100 µM (inactive) | 78.9 µM (inactive) | > 100 µM (inactive) | > 100 µM (inactive) | > 100 µM (inactive) | > 100 µM (inactive) | > 100 µM (inactive) | > 100 µM (inactive) | > 100 µM (inactive) | > 100 | 84.7 µM (inactive) | > 100 µM (inactive) | > 100 µM (inactive) | > 100 µM (inactive) | > 100 µM (inactive) | > 100 µM (inactive) | > 100 µM (inactive) | > 100 µM (inactive)
8 | COc1cc(C2c3cc4c(cc3OC(C)(N3CCCC3)C2C)OCO4)cc(OC)c1OC (stereo not given) | 0.815 µM (active) | 0.192 µM (active) | 0.343 µM (active) | 0.256 µM (active) | 0.22 µM (active) | 0.302 µM (active) | 1.09 µM (active) | 0.446 µM (active) | 0.457 µM (active) | 2.19 µM (inactive) | 0.515 µM (active) | 0.472 | 0.428 µM (active) | 0.273 µM (active) | 0.405 µM (active) | 0.327 µM (active) | 0.472 µM (active) | 0.3 µM (active) | 0.286 µM (active) | 0.798 µM (active)
9 | COC(=O)Cc1ccc2c(c1)Sc1ccc(CC(=O)OC)cc1N2C | 38 µM (inactive) | 16.3 µM (inactive) | 23.8 µM (inactive) | 25.1 µM (inactive) | 18.2 µM (inactive) | 40.6 µM (inactive) | 11.6 µM (inactive) | 33.7 µM (inactive) | 9.57 µM (inactive) | 24.6 µM (inactive) | 24 µM (inactive) | 14.7 | 25.5 µM (inactive) | 39.3 µM (inactive) | 51.4 µM (inactive) | > 71.6 µM (inactive) | 34.3 µM (inactive) | 9.66 µM (inactive) | 8.07 µM (inactive) | 38.3 µM (inactive)
10 | N#CC1=C(S)N(C2OC(CO)C(O)C(O)C2O)C(c2ccccc2)=CC1c1ccccc1 (stereo not given) | 62.1 µM (inactive) | > 100 µM (inactive) | 52.1 µM (inactive) | 25.2 µM (inactive) | 44.2 µM (inactive) | 59.3 µM (inactive) | > 100 µM (inactive) | 72.4 µM (inactive) | 43.1 µM (inactive) | 31.8 µM (inactive) | > 100 µM (inactive) | 18.8 | 37.9 µM (inactive) | 41.5 µM (inactive) | 6.53 µM (inactive) | > 100 µM (inactive) | 45.3 µM (inactive) | 29.8 µM (inactive) | 66.1 µM (inactive) | 45 µM (inactive)
11 | COC(=O)C(CCSC)NC(=O)CSc1nnc(COc2ccc(Cl)cc2)n1-c1ccccc1 (stereo not given) | 18.1 µM (inactive) | 17.6 µM (inactive) | 21.3 µM (inactive) | 19.1 µM (inactive) | 18.3 µM (inactive) | 21.3 µM (inactive) | 16.7 µM (inactive) | 17.8 µM (inactive) | 21.1 µM (inactive) | 18.2 µM (inactive) | 26.8 µM (inactive) | 18.6 | 16.3 µM (inactive) | 21.4 µM (inactive) | 16 µM (inactive) | 18.2 µM (inactive) | 18.6 µM (inactive) | 13.9 µM (inactive) | 18.2 µM (inactive) | 17.4 µM (inactive)

From ChEMBL document CHEMBL1201862, “PubChem BioAssay data set” (2004)
